According to patent US9480627B2, “Long term bacteriostatic compounds and their use in restorative dental materials” (priority 2010, dated 2016):

Test: Storage stability in sealed container in 37 C oven for nine months
Conditions: nine month storage period
Text: These ingredients were blended together until homogenous and were allowed to remain in a sealed container in a 37 C oven for nine months.

## Zinc pyrithione
  stability with acrylic dental adhesives (premature cure on storage): does not cure
